The term EC50 denotes the concentration needed to bring the measured effect to its halfway point. What is called AC50 is the concentration at which the activity in the assay is half-maximal. The term IC50 denotes the concentration that gives 50% inhibition.

We go through 46 compounds from ChEMBL document CHEMBL1201862, “PubChem BioAssay data set” (2004).

The test system of one test is H4. The test is described as follows: Luminescence Cell-Based Dose Response HTS to Identify Activators of 5'UTR Stem-Loop Driven Prion Protein mRNA Translation in H4 Neuroglioblastoma Cells. [Related pubchem assays: 1829 (Project Summary), 1814 (Primary HTS)]. The settings on record: Homo sapiens. It counts as functional.
The nature of test [1]: Luminescence Cell-Based Dose Response HTS to Identify Activators of Luciferase Translation or Activity in H4 […] Cells. [Related pubchem assays: 1829 (Project Summary), 1814 (Primary HTS)]. Type of test: functional.
For a further test, the target named is Cytochrome P450 2D6 (Homo sapiens, UniProt P10635).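 Further: CYP2D6 member of a cytochrome P450 panel assay.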
Cytochrome P450 2D6, sequence (P10635 whole entry): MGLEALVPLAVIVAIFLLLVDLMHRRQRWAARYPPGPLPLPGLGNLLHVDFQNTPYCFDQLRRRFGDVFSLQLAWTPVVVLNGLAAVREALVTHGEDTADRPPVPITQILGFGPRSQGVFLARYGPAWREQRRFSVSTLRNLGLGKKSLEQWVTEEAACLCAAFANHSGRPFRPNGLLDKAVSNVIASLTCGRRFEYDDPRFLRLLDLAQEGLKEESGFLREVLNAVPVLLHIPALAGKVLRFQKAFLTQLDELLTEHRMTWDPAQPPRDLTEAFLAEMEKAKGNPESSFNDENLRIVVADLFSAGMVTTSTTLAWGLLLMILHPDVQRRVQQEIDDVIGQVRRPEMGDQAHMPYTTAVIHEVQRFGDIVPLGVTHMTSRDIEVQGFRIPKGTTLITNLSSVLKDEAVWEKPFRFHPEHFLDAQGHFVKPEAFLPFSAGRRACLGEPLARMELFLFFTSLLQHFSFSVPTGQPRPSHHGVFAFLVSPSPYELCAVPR
The target of the next test is Cytochrome P450 2C9 (Homo sapiens, UniProt P11712).
Cytochrome P450 2C9, sequence (P11712 whole entry): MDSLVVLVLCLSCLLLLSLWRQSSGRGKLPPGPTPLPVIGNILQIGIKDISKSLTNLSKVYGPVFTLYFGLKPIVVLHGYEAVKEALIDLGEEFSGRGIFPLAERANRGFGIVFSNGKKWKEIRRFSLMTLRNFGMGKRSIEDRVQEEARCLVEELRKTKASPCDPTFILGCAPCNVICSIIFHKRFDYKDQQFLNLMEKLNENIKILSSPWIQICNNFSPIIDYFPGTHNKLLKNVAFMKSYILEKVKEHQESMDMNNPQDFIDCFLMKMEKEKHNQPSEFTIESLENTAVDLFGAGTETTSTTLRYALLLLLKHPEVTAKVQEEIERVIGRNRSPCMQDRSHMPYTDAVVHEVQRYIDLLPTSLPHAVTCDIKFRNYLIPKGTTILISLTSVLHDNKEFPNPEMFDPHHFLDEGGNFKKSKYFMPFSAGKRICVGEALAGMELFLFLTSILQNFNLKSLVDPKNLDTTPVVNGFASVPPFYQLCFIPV
The target in a further test is T1, Cytochrome P450 1A2 (Homo sapiens, UniProt P05177).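 Further: PubChem cytochrome P450 panel assay, CYP1A2 panel member.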
T1 sequence (P05177 whole entry): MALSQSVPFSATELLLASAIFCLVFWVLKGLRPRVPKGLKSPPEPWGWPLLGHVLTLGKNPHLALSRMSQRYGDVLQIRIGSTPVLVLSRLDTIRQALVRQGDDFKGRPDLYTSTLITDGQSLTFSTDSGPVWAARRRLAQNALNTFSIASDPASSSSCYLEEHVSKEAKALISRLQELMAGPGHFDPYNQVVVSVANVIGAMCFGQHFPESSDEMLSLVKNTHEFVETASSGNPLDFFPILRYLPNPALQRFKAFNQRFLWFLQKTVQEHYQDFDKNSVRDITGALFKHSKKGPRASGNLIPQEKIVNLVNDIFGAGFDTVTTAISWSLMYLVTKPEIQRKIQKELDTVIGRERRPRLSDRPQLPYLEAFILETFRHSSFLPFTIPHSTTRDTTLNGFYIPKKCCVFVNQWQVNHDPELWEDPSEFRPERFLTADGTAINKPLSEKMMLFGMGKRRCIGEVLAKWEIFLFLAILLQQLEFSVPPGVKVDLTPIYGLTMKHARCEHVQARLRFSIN

In test [2] the target is T2, Rac GTPase-activating protein 1 (Homo sapiens, UniProt Q9H0H5).
T2 sequence (Q9H0H5 whole entry): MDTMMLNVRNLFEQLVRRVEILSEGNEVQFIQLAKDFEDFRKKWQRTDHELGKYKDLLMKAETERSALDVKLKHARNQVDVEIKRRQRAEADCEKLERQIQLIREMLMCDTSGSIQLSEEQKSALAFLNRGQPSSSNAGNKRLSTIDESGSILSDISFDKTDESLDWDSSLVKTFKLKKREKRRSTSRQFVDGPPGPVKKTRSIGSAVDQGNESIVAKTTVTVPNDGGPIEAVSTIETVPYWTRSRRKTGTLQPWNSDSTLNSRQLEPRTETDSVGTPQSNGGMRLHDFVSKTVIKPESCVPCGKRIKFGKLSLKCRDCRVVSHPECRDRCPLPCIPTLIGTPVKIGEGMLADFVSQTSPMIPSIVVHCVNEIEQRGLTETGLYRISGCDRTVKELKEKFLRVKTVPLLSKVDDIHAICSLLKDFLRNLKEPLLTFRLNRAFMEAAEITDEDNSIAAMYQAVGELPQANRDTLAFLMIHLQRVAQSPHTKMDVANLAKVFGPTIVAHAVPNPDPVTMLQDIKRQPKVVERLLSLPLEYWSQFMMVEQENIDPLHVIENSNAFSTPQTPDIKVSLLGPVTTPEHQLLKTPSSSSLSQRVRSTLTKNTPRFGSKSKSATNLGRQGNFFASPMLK
The test can be described thus: MgcRacGAP GTPase-activating activity inhibitors, confirmation, biochemical, ADP Hunter fluorescence, primary and confirmatory (AID 624330). Type of test: functional.

The next test addresses Cytochrome P450 3A4 (Homo sapiens, UniProt P08684).
Test [3] can be described thus: Luminescence Cell-Based Dose Retest to Confirm Inhibitors of Cancer Stem Cells. [Related pubchem assays (depositor defined):AID2717, AID2721]. Type of test: functional. Conditions: Homo sapiens.
The target of a further test is Cytochrome P450 2C19 (Homo sapiens, UniProt P33261). The test can be described thus: Cytochrome panel assay with activity outcomes. Panel member name: p450-cyp2c19 Compounds with AC50 equal or less than 10 uM are considered active. Type of test: functional. The settings on record: read-out: AC50.
Cytochrome P450 2C19, sequence (P33261 whole entry): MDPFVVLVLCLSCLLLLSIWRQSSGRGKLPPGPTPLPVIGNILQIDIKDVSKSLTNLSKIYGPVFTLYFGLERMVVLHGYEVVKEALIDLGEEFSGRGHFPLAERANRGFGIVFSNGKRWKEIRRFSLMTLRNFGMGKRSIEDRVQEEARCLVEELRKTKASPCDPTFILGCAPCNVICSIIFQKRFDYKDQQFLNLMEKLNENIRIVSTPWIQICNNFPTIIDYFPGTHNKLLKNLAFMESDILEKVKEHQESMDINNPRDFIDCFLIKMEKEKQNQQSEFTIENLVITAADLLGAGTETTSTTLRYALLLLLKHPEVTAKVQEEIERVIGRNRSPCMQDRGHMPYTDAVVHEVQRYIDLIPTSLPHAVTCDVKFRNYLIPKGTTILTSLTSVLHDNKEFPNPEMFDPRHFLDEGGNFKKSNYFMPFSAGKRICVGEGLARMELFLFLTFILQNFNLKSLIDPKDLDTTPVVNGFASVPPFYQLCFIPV
For the next test, the system named is Streptococcus. The test can be described thus: Group A Streptococcus viability loss, dose response, counter-screen for streptokinase expression inhibitor project, luminescence, BacTiterGlo (AID 1915).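 Further: potency for reduction of bacterial viability or growth.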 Type of test: functional, organism-based.
The test system of test [4] is Streptococcus sp. 'group A'. The test is described as follows: growth inhibition of control SK(-) GAS strain, dose response, counter-screen for streptokinase expression inhibitor project, luminescence, kanamycin, BacTiterGlo, confirmation (AID 1900). Type of test: functional, organism-based. (The purpose of a counterscreen is to sort out artefacts and off-target activity.)

SMILES strings stand for the structures. Calls of active or inactive are those of the source.

Cytochrome P450 3A4, sequence (P08684 whole entry): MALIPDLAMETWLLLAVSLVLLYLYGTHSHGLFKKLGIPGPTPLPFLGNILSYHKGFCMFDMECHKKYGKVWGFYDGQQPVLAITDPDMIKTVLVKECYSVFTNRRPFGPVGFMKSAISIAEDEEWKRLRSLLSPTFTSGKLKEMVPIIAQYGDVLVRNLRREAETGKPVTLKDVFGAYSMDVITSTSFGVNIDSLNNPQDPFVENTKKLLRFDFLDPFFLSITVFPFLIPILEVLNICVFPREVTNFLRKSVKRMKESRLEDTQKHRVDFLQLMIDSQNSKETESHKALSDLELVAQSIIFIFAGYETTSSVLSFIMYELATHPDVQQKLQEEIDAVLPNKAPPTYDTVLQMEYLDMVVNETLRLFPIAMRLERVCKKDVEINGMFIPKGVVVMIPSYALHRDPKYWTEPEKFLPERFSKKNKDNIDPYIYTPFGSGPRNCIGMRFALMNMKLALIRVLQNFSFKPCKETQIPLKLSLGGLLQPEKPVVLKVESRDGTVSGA

On to `Oc1c2c(nc3cc(-c4ccccc4Cl)nn13)CCS2`, for which the EC50 in the test on H4 was 21.7 µM (active); in [1] it was 2.34 µM (active). As for `O=C(CCCCn1c(=S)[nH]c2ccsc2c1=O)NCc1ccco1`, on Cytochrome P450 2D6, the concentration at half-maximal activity (AC50) was 39.8 µM (inconclusive). Turning to `Cc1nc(SCC(=O)c2ccc(F)cc2)c([N+](=O)[O-])[nH]1`, the AC50 at Cytochrome P450 2C9 was 20 µM (inconclusive). Take `Cc1nn(-c2ccccc2)c(Cl)c1C(=O)Nc1c(C)n(C)n(-c2ccccc2)c1=O`: the AC50 at Cytochrome P450 1A2 is 5.01 µM (inconclusive); at Cytochrome P450 2C9, 20 µM (inconclusive). With `O=C(O)C1CSC(c2ccco2)N1` (stereo not drawn), in [2], the IC50 was 70.6 µM (active). With `COc1ccc2c(c1OC)C(=O)N1c3ccccc3SC21` (stereo not drawn), the EC50 with H4 is 0.179 µM (active); in test [1], 0.124 µM (active).

Turning to `CC(C)NC(=O)CSc1nnc(C2CC2)n1-c1ccccc1`, the AC50 at Cytochrome P450 3A4 was 25.1 µM (inconclusive); at Cytochrome P450 2C9, 31.6 µM (inconclusive). Consider `C=CCNCC(O)COc1ccc(C(C)=O)cc1OC` (stereo not drawn), for which, in [2], the IC50 is 131 µM (active). With `CN1CCN(c2ccc(NC(=O)c3ccc(C#N)cc3F)cc2Cl)CC1`, in test [3], the AC50 was 11.9 µM (active). For `CCCCNc1ncnc2c1cnn2-c1ccccc1`, the EC50 with H4 was 27.1 µM (active). As for `O=C(Nc1ccc(O)c(-c2nc3ccccc3o2)c1)C1(c2ccc(Br)cc2)CCCC1`, in test [3], the AC50 was > 195 µM (inactive). Turning to `O=C(O)c1nnsc1-c1ccc(-c2snnc2C(=O)O)cc1`, the AC50 at Cytochrome P450 2C9 is 7.94 µM (inconclusive). As for `COc1cccc2[nH]c(C(=O)NN)c(N)c12`, the IC50 in test [2] was 99.4 µM (active). As for `c1nc(NC2CC2)c2cc(-c3ccoc3)ccc2n1`, the AC50 is 5.01 µM (inconclusive) on Cytochrome P450 3A4, 20 µM (inconclusive) at Cytochrome P450 2C19 and 39.8 µM (inconclusive) on Cytochrome P450 2D6. As to `O=C(NC(=S)Nc1ccc(O)cc1)C1CCCC1`, the IC50 in [2] was 29.6 µM (active). For `COc1ccccc1CNc1cc(-c2c(C)noc2C)ncn1`, the figures for the AC50 on Cytochrome P450 3A4, at Cytochrome P450 2C19 and on Cytochrome P450 2D6 were 39.8 µM (inconclusive), 25.1 µM (inconclusive) and 25.1 µM (inconclusive), respectively. In the case of `CC[C@H]1OC(=O)[C@H](C)[C@@H](O[C@H]2C[C@@](C)(OC)[C@@H](O)[C@H](C)O2)[C@H](C)[C@@H](O[C@@H]2O[C@H](C)C[C@H](N(C)C)[C@H]2O)[C@](C)(O)C[C@@H](C)C(=NOCOCCOC)[C@H](C)[C@@H](O)[C@]1(C)O`, the EC50 (in the test on Streptococcus; in test [4]) was < 0.06 µM (active) throughout. Turning to `COC(=O)c1ccc(NC(=S)N2CCN(Cc3cccc(C)c3)CC2)cc1`, the AC50 at Cytochrome P450 2D6 is 35.5 µM (inconclusive). With `O=C(NC(=S)Nc1cccc(Cl)c1N1CCCCC1)c1cccs1`, the AC50 in test [3] was 2.08 µM (active). As to `COC(=O)c1cc(Br)c(=O)n(CCN2CCCC2)c1`, the AC50 was 12.6 µM (inconclusive) at Cytochrome P450 1A2, 39.8 µM (inconclusive) at Cytochrome P450 2C9, 39.8 µM (inconclusive) at Cytochrome P450 2C19 and 17.8 µM (inconclusive) at Cytochrome P450 2D6. Regarding `Cc1c(C)n(CCc2ccccc2)c2ncnc(NCCCN(C)C)c12`, the AC50 in test [3] was 3.51 µM (active). Consider `CCCOC(=O)c1c(NC(=O)/C=C/c2cnn(C)c2C)sc(C(=O)OCC)c1C`, for which the AC50 was 15.8 µM (inconclusive) at Cytochrome P450 3A4, 17.8 µM (inconclusive) on Cytochrome P450 1A2, 39.8 µM (inconclusive) at Cytochrome P450 2C9 and 10 µM (inconclusive) on Cytochrome P450 2C19.

Regarding `OCCNCCSc1nc(C2CCCCC2)n(-c2ccccc2Cl)n1`, in test [2], the IC50 is 120 µM (active).

As for `Cc1ccc(C(=O)CSC2=C(C#N)C(c3ccco3)C3=C(O)CC(C)(C)CC3=N2)cc1` (stereo not drawn), the AC50 in test [3] was 2.49 µM (active). Regarding `O=C(NCCN1CCOCC1)c1ccc2ccccc2c1`, the values for the concentration at half-maximal activity (AC50) at Cytochrome P450 1A2 and at Cytochrome P450 2D6 were 31.6 µM (inconclusive) and 15.8 µM (inconclusive), respectively. For the compound `CCN(CC)S(=O)(=O)c1ccc(C)c(NC(=O)CN2CCN(Cc3ccccc3)CC2)c1`, in test [2], the IC50 is 84.8 µM (active). In the case of `CC1Cc2ccccc2N1C(=O)CSc1nnnn1C(C)C` (stereo not drawn), the AC50 on Cytochrome P450 3A4 was 15.8 µM (inconclusive); at Cytochrome P450 1A2 it was 15.8 µM (inconclusive); on Cytochrome P450 2C9, 14.1 µM (inconclusive). Consider `O=C(Nc1ccnc(-c2cccnc2)n1)c1ccccc1Cl`, for which the AC50 is 14.1 µM (inconclusive) on Cytochrome P450 2C19 and 11.2 µM (inconclusive) on Cytochrome P450 2D6. As to `COC(=O)N1CCC[C@@]2(CCN(C(=O)Nc3cccc(F)c3)C2)C1`, the figures for the AC50 at Cytochrome P450 3A4, on Cytochrome P450 1A2 and at Cytochrome P450 2C9 were 12.6 µM (inconclusive), 15.8 µM (inconclusive) and 39.8 µM (inconclusive), respectively. On to `CC(=O)Oc1ccc(C#C/C=C2\c3ccccc3C(=O)N2c2ccccc2)cc1`, for which the AC50 in test [3] was 2.25 µM (active). In the case of `CCc1nnc(SCc2ccc(OC(C)C)cc2)n1N`, the AC50 was 14.1 µM (inconclusive) at Cytochrome P450 3A4, 15.8 µM (inconclusive) at Cytochrome P450 1A2 and 0.00562 µM (inconclusive) at Cytochrome P450 2C9. Regarding `COC(=O)C1=C(N)Oc2cc(C)n(CC3CCCO3)c(=O)c2C1c1ccccc1OC` (stereo not drawn), the AC50 was 28.2 µM (inconclusive) on Cytochrome P450 2C9 and 22.4 µM (inconclusive) on Cytochrome P450 2C19. On to `CCOC(=O)c1[nH]c(C(=O)O)c(CCN(CC)CC)c1C`, for which the concentration at half-maximal activity (AC50) is 39.8 µM (inconclusive) at Cytochrome P450 1A2 and 3.98 µM (inconclusive) at Cytochrome P450 2D6. As to `CC1(C)CCC[C@]2(C)[C@H]3Cc4cc(O)ccc4O[C@]3(C)CC[C@@H]12`, the concentration at half-maximal activity (AC50) in test [3] was 4.75 µM (active). Regarding `Cc1ccc(C2CC(C(F)(F)F)n3nc(C(=O)NCCN4CCOCC4)cc3N2)cc1` (stereo not drawn), the AC50 on Cytochrome P450 1A2 is 1 µM (inconclusive); on Cytochrome P450 2C9 it was 12.6 µM (inconclusive). In the case of `COc1ccc(N2CCN(c3nc(Nc4ccc(F)cc4)nc(OC)n3)CC2)cc1`, the figures for the AC50 on Cytochrome P450 3A4, at Cytochrome P450 1A2 and at Cytochrome P450 2C9 were 3.16 µM (inconclusive), 3.16 µM (inconclusive) and 3.55 µM (inconclusive), respectively. As for `N=C1c2ccccc2CN1NC(=O)c1ccc(F)cc1`, the concentration at half-maximal activity (AC50) at Cytochrome P450 2C9 is 17.8 µM (inconclusive); at Cytochrome P450 2C19, 28.2 µM (inconclusive). Take `Cn1c(=O)[nH]c(NCCc2ccc(O)cc2)c([N+](=O)[O-])c1=O`: the concentration for half-maximal inhibition (IC50) in [2] was 219 µM (active). For the compound `COc1cc2c(cc1N)-c1ccc(N)cc1C2=O`, in test [2], the IC50 was 12.3 µM (active). For `Cc1sc2ncnc(N/N=C/c3ccc(O)cc3)c2c1C`, the IC50 in [2] was 37.6 µM (active). On to `O=C(O)c1cc(N/N=C/c2c(O)ccc3ccccc23)ccc1Cl`, for which the IC50 in test [2] was 35.7 µM (active). For `CC(/C=N/NC(=O)Cc1cccs1)=C\c1ccco1`, the concentration at half-maximal activity (AC50) at Cytochrome P450 2D6 is 14.1 µM (inconclusive).

As to `CC/C(=N\O)c1ccc(O)c(OC)c1`, the IC50 in test [2] is 45.2 µM (active). The same measure, in the same setting: then `COc1cc(/C=N\N=C2/SC(CC(=O)O)C(=O)N2c2ccc(O)cc2)ccc1O` (stereo not drawn), with 78.1 µM (active).

Turning to `CN(C)S(=O)(=O)c1ccc2c(c1)/C(=C/c1cc3c([nH]1)CCCC3)C(=O)N2`, the figures for the AC50 on Cytochrome P450 2C9, at Cytochrome P450 2C19 and at Cytochrome P450 2D6 were 10 µM (inconclusive), 7.94 µM (inconclusive) and 31.6 µM (inconclusive), respectively. Turning to `CC=C(/C(=C/C)c1ccc(O)cc1)c1ccc(O)cc1` [DIENESTROL], the concentration at half-maximal activity (AC50) at Cytochrome P450 1A2 and at Cytochrome P450 2D6 was 15.8 µM (inconclusive) throughout.
